Results taken from the kinase profiling compilation of Christmann-Franck et al. (2016).

Legend:
AURKB (human) = AURKB (human) (UniProt Q96GD4); assay: radiometric filter-binding kinase assay, Kinaseprofiler; details: ATP 10 µM
MAP3K5 (human) = MAP3K5 (human) (UniProt Q99683); assay: as above; details: ATP 200 µM

Measured: residual activity

Chain of AURKB (human) (Q96GD4 whole entry, looked up): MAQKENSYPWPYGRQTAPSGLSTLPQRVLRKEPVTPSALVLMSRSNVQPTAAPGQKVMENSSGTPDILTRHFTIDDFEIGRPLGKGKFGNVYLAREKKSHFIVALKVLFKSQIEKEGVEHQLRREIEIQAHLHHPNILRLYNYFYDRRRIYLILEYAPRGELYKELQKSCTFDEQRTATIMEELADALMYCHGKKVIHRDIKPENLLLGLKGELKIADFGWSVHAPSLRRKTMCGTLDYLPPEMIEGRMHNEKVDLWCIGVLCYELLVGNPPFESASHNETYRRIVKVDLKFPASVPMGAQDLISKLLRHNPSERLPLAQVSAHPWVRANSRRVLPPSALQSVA
Chain of MAP3K5 (human) (Q99683 whole entry, looked up): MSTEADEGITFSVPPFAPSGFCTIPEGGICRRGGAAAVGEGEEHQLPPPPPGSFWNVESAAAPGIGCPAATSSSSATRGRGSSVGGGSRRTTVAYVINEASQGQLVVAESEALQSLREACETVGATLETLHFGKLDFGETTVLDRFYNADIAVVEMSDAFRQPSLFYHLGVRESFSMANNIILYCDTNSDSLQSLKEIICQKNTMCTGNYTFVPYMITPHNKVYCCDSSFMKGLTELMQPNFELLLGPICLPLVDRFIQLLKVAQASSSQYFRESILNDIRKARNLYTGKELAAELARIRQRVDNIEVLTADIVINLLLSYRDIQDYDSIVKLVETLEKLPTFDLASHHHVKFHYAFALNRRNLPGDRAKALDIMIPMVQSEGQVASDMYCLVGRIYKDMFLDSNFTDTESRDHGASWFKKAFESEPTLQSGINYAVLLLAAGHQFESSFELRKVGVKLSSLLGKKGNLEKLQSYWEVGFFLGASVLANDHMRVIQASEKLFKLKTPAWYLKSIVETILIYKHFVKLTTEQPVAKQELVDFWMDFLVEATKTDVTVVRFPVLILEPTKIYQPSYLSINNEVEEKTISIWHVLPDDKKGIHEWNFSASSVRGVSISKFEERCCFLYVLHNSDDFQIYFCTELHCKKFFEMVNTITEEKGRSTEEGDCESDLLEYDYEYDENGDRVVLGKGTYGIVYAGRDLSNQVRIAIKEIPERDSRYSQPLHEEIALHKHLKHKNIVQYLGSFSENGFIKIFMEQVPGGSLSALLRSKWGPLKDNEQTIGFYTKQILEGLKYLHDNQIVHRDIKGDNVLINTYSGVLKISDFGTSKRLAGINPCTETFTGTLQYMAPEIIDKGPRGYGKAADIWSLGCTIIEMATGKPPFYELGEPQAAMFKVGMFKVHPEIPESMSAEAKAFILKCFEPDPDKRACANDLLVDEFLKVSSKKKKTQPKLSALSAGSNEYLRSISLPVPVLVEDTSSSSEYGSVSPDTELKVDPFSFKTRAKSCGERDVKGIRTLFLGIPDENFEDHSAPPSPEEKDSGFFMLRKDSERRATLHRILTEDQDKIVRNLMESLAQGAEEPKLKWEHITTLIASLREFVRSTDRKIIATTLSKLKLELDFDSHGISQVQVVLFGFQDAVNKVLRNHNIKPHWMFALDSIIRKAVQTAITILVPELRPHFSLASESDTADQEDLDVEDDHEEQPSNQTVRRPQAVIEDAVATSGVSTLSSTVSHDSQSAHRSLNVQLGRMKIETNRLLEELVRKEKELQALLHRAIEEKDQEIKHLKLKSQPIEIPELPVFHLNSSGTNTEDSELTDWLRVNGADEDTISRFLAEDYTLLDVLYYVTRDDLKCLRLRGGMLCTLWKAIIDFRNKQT

COC(=O)[C@]1(O)C[C@@H]2O[C@@]1(C)n1c3ccccc3c3c4c(c5c6ccccc6n2c5c31)C(=O)NC4
0%: AURKB (human); compound 1.0 µM | AURKB (human); compound 10.0 µM | MAP3K5 (human); compound 1.0 µM | MAP3K5 (human); compound 10.0 µM
